# Laboratory results published in patent US20060251654A1, “Method for treatment of malignant and infectious chronic diseases” (Centro de Inmunologia Molecular, priority 2001, published 2006).
# Test system: syngeneic tumor 3LL-D122
# Assay: Survival of mice bearing 3LL-D122 tumor after surgery of the primary tumor (Examples 5 and 6)
# Type: in vivo, C57BL/6 mice
# Conditions: EGF-p64 vaccine i.m., two weeks later Cyclophosphamide 50 mg/kg i.v., three days later second vaccine dose; versus vaccine plus saline or Cyclophosphamide only
# Experimental: C57BL/6 mice were injected with the syngeneic tumor 3LL-D122 (200,000 cells/animal) in the right plantar pad. The evolution of the tumor was evaluated by measurement of its diameters every 3 days and surgery of the primary tumor was practiced (amputation) when it reached 8-9 mm of diameter. Mice survival, which is depended of spontaneous lung metastases was measured.
# Two days after the inoculation of the tumor mice were injected by intramuscular route with a vaccine that contains 4 μg of human EGF conjugated to the p64 protein (EGF-p64) in Montanide ISA 51 (100 μl final volume) and two weeks later they were treated with 50 mg/kg of Cyclophosphamide by intravenous route or with saline solution. After three days, the mice were re-immunized by intramuscular route with a second dose of the EGF-p64 vaccine.
# An animal group just was treated by intravenous route with 50 mg/kg of Cyclophosphamide and another one was not treated.
# C57BL/6 mice were injected with the syngenic tumor 3LL-D122 as it is described in Example 5.
# Two days after to the inoculation of the tumor, mice were injected by intramuscular route with a vaccine that contains 4 μg of human EGF conjugated to the P64 protein (EGF-p64) in Montanide ISA 51 (100 μl final volume) and two weeks later they were treated with 1 mg of anti-CD25 monoclonal antibody by intravenous route or with saline solution as control. […]
compound,measurement,value
O=P1(N(CCCl)CCCl)NCCCO1 (stereo not shown) [Cyclophosphamide],mice survival,increases the mice survival
